From patent US20240208956A1, “1,3,4-OXADIAZOLE THIOCARBONYL COMPOUNDS AS HISTONE DEACETYLASE 6 INHIBITOR, AND PHARMACEUTICAL COMPOSITION COMPRISING THE SAME” (CHONG KUN DANG PHARMACEUTICAL CORP., priority 2021, published 2024)
pIC50: −log10 of the molar value.

What was measured:
[1] = target: HDAC1 (Homo sapiens (Human), UniProt Q13547); test: HDAC enzyme activity inhibition (in vitro), HDAC1 Fluorimetric Drug Discovery Assay Kit; type: biochemical; settings: samples at 100, 1000 and 10000 nM; 37° C. 60 minutes; fluorescence Ex 390 nm, Em 460 nm
Description: Experimental Example 1. Confirmation of HDAC Enzyme Activity Inhibition (In Vitro)
(§1) An HDAC enzyme inhibitory capacity of test material was measured by using HDAC1 Fluorimetric Drug Discovery Assay Kit (Enzolifesciences: BML-AK511) and HDAC6 human recombinant (Calbiochem: 382180). For a HDAC1 assay, samples were treated at a concentration of 100 nM, 1000 nM and 10000 nM. For an HDAC6 assay, samples were treated at a concentration of 0.1 nM, 1 nM, 10 nM, 100 nM and 1000 nM. After the sample treatment, a reaction was continued at 37° C. for 60 minutes, treated with a developer, and subjected to reaction at 37° C. for 30 minutes, after which fluorescence intensity (Ex 390 nm, Em 460 nm) was measured by using FlexStation3 (Molecular device). For final result values, each […] value was calculated with GraphPad Prism 4.0 program.

[2] = target: HDAC6 human recombinant (Homo sapiens (Human), UniProt Q9UBN7); test: HDAC enzyme activity inhibition (in vitro), HDAC6 fluorimetric assay; type: biochemical; settings: samples at 0.1-1000 nM; 37° C. 60 minutes; fluorescence Ex 390 nm, Em 460 nm
Description: Confirmation of HDAC Enzyme Activity Inhibition (In Vitro)
as §1

HDAC6 human recombinant, sequence (Q9UBN7 whole entry): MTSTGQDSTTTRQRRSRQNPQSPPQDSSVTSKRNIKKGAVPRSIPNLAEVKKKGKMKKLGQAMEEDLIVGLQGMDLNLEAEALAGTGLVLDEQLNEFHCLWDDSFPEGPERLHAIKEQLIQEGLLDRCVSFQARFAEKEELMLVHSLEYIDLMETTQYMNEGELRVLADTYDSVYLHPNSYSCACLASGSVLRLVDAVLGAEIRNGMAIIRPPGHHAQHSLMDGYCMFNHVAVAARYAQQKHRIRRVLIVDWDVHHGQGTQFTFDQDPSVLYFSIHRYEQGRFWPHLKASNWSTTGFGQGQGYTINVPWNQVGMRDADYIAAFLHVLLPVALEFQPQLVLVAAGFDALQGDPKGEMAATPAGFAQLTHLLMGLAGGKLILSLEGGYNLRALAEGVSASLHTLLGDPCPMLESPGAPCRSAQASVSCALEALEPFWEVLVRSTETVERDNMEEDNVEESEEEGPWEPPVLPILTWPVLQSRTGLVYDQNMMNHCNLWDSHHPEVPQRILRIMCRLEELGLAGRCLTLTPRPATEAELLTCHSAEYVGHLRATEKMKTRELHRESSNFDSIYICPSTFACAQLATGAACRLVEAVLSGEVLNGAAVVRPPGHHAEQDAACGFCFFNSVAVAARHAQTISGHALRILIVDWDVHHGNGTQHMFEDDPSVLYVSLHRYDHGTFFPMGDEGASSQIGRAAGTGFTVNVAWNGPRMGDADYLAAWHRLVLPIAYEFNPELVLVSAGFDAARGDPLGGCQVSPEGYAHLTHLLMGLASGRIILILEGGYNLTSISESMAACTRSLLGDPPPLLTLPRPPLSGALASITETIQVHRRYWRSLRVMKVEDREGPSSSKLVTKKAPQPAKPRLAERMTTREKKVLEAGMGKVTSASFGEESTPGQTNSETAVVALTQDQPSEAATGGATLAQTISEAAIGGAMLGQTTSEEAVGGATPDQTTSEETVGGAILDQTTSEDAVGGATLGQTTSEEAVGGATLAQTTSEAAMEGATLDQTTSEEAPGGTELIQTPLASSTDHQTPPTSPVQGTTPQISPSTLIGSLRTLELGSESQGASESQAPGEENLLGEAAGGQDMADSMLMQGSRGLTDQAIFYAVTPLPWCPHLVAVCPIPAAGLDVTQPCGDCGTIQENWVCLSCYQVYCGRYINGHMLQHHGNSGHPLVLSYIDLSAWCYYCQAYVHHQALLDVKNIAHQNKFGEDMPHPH
HDAC1, sequence (Q13547 whole entry): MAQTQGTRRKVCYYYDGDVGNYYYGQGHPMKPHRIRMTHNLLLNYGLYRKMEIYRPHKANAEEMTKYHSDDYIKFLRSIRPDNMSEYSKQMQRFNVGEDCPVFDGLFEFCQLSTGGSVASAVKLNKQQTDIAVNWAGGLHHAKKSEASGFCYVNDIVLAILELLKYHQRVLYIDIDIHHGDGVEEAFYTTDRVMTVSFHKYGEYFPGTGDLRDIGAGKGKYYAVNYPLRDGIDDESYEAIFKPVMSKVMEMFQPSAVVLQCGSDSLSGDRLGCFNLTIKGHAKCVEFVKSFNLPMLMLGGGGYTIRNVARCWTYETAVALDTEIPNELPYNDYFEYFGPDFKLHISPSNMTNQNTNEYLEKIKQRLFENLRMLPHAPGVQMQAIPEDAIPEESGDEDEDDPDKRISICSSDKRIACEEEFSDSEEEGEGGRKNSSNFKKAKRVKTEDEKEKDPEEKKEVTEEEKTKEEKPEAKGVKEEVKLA

Compound: Fc1cc(-c2nnc(C(F)F)o2)ccc1CN(C(=S)N1CCOCC1)c1ccccc1 [Compound 1, N-(4-(5-(difluoromethyl)-1,3,4-oxadiazol-2-yl)-2-fluorobenzyl)-N-phenylmorpholin-4-carbothioamide]
- pIC50 [1]: < 5.00

Compound: FC(F)c1nnc(-c2ccc(CN(C(=S)N3CCOCC3)c3ccccc3)nc2)o1 [Compound 2, N-((5-(5-(difluoromethyl)-1,3,4-oxadiazol-2-yl)pyridin-2-yl)methyl)-N-phenylmorpholin-4-carbothioamide]
- pIC50 [1]: < 5.00
- pIC50 [2]: 7.18

Compound: FC(F)c1nnc(-c2ccc(CN(C(=S)N3CCOCC3)c3ccccc3)cc2)o1 [Compound 3, N-(4-(5-(difluoromethyl)-1,3,4-oxadiazol-2-yl)benzyl)-N-phenylmorpholin-4-carbothioamide]
- pIC50 [1]: < 5.00
- pIC50 [2]: 7.43

Compound: CN1CCN(C(=S)N(Cc2ccc(-c3nnc(C(F)F)o3)cc2)c2ccccc2)CC1 [Compound 4, N-(4-(5-(difluoromethyl)-1,3,4-oxadiazol-2-yl)benzyl)-4-methyl-N-phenylpiperazin-1-carbothioamide]
- pIC50 [1]: < 5.00
- pIC50 [2]: 7.43

Compound: FC(F)c1nnc(-c2ccc(CN(C(=S)N3CCN(C4COC4)CC3)c3ccccc3)cc2)o1 [Compound 5, N-(4-(5-(difluoromethyl)-1,3,4-oxadiazol-2-yl)benzyl)-4-(oxetan-3-yl)-N-phenylpiperazin-1-carbothioamide]
- pIC50 [1]: < 5.00
- pIC50 [2]: 7.43

Compound: O=S1(=O)CCN(C(=S)N(Cc2ccc(-c3nnc(C(F)F)o3)cn2)c2ccccc2)CC1 [Compound 6, N-((5-(5-(difluoromethyl)-1,3,4-oxadiazol-2-yl)pyridin-2-yl)methyl)-N-phenylthiomorpholin-4-carbothioamide 1,1-dioxide]
- pIC50 [1]: < 5.00
- pIC50 [2]: 7.51

Compound: CN1CCN(C(=S)N(Cc2ccc(-c3nnc(C(F)F)o3)cc2F)c2ccccc2)CC1 [Compound 7, N-(4-(5-(difluoromethyl)-1,3,4-oxadiazol-2-yl)-2-fluorobenzyl)-4-methyl-N-phenylpiperazin-1-carbothioamide]
- pIC50 [1]: < 5.00

Compound: CN1CCC2(CC1)CC(C(=S)N(Cc1ccc(-c3nnc(C(F)F)o3)cc1F)c1ccccc1)C2 [Compound 8, N-(4-(5-(difluoromethyl)-1,3,4-oxadiazol-2-yl)-2-fluorobenzyl)-7-methyl-N-phenyl-7-azaspiro[3.5]nonan-2-carbothioamide]
- pIC50 [1]: < 5.00
- pIC50 [2]: 7.12

Compound: Fc1cc(-c2nnc(C(F)F)o2)ccc1CN(C(=S)c1ccncc1)c1ccccc1 [Compound 9, N-(4-(5-(difluoromethyl)-1,3,4-oxadiazol-2-yl)-2-fluorobenzyl)-N-phenylpyridin-4-carbothioamide]
- pIC50 [1]: < 5.00
- pIC50 [2]: 6.86

Compound: CN1CC2(C1)CN(C(=S)N(Cc1ccc(-c3nnc(C(F)F)o3)cc1F)c1ccccc1)C2 [Compound 10, N-(4-(5-(difluoromethyl)-1,3,4-oxadiazol-2-yl)-2-fluorobenzyl)-6-methyl-N-phenyl-2,6-diazaspiro[3.3]heptan-2-carbothioamide]
- pIC50 [1]: < 5.00
- pIC50 [2]: 7.35

Compound: Fc1cc(-c2nnc(C(F)F)o2)ccc1CN(C(=S)N1CC2(C1)CN(C1COC1)C2)c1ccccc1 [Compound 11, N-(4-(5-(difluoromethyl)-1,3,4-oxadiazol-2-yl)-2-fluorobenzyl)-6-(oxetan-3-yl)-N-phenyl-2,6-diazaspiro[3.3]heptan-2-carbothioamide]
- pIC50 [1]: < 5.00
- pIC50 [2]: 7.30

Compound: CN1CC2(C1)CN(C(=S)N(Cc1ccc(-c3nnc(C(F)F)o3)cc1F)c1ccc(F)cc1F)C2 [Compound 12, N-(4-(5-(difluoromethyl)-1,3,4-oxadiazol-2-yl)-2-fluorobenzyl)-N-(2,4-difluorophenyl)-6-methyl-2,6-diazaspiro[3.3]heptan-2-carbothioamide]
- pIC50 [1]: < 5.00
- pIC50 [2]: 6.87

Compound: CN1CC2(C1)CN(C(=S)N(Cc1ccc(-c3nnc(C(F)F)o3)cc1F)c1ccc(F)c(F)c1)C2 [Compound 13, N-(4-(5-(difluoromethyl)-1,3,4-oxadiazol-2-yl)-2-fluorobenzyl)-N-(3,4-difluorophenyl)-6-methyl-2,6-diazaspiro[3.3]heptan-2-carbothioamide]
- pIC50 [1]: < 5.00
- pIC50 [2]: 7.12

Compound: CN1CC2(C1)CN(C(=S)N(Cc1ccc(-c3nnc(C(F)F)o3)cc1)c1cccc(F)c1)C2 [Compound 14, N-(4-(5-(difluoromethyl)-1,3,4-oxadiazol-2-yl)benzyl)-N-(3-fluorophenyl)-6-methyl-2,6-diazaspiro[3.3]heptan-2-carbothioamide]
- pIC50 [1]: < 5.00
- pIC50 [2]: 7.41

Compound: Fc1cccc(N(Cc2ccc(-c3nnc(C(F)F)o3)cc2)C(=S)N2CC3(C2)CN(C2COC2)C3)c1 [Compound 15, N-(4-(5-(difluoromethyl)-1,3,4-oxadiazol-2-yl)benzyl)-N-(3-fluorophenyl)-6-(oxetan-3-yl)-2,6-diazaspiro[3.3]heptan-2-carbothioamide]
- pIC50 [1]: < 5.00
- pIC50 [2]: 7.27

Compound: CC(C)N1CC2(CN(C(=S)N(Cc3ccc(-c4nnc(C(F)F)o4)cc3)c3cccc(F)c3)C2)C1 [Compound 16, N-(4-(5-(difluoromethyl)-1,3,4-oxadiazol-2-yl)benzyl)-N-(3-fluorophenyl)-6-isopropyl-2,6-diazaspiro[3.3]heptan-2-carbothioamide]
- pIC50 [1]: < 5.00
- pIC50 [2]: 7.20

Compound: CN1CC2(C1)CN(C(=S)N(Cc1ccc(-c3nnc(C(F)F)o3)cc1F)c1ccc(F)cc1)C2 [Compound 17, N-(4-(5-(difluoromethyl)-1,3,4-oxadiazol-2-yl)-2-fluorobenzyl)-N-(4-fluorophenyl)-6-methyl-2,6-diazaspiro[3.3]heptan-2-carbothioamide]
- pIC50 [1]: < 5.00
- pIC50 [2]: 7.39

Compound: CC(C)N1CC2(CN(C(=S)N(Cc3ccc(-c4nnc(C(F)F)o4)cc3F)c3ccc(F)cc3)C2)C1 [Compound 18, N-(4-(5-(difluoromethyl)-1,3,4-oxadiazol-2-yl)-2-fluorobenzyl)-N-(4-fluorophenyl)-6-isopropyl-2,6-diazaspiro[3.3]heptan-2-carbothioamide]
- pIC50 [1]: < 5.00
- pIC50 [2]: 7.21

Compound: Fc1ccc(N(Cc2ccc(-c3nnc(C(F)F)o3)cc2F)C(=S)N2CC3(C2)CN(C2COC2)C3)cc1 [Compound 19, N-(4-(5-(difluoromethyl)-1,3,4-oxadiazol-2-yl)-2-fluorobenzyl)-N-(4-fluorophenyl)-6-(oxetan-3-yl)-2,6-diazaspiro[3.3]heptan-2-carbothioamide]
- pIC50 [1]: < 5.00
- pIC50 [2]: 7.27

Compound: CN1CC2(C1)CN(C(=S)N(Cc1ccc(-c3nnc(C(F)F)o3)cc1)c1ccc(F)cc1)C2 [Compound 20, N-(4-(5-(difluoromethyl)-1,3,4-oxadiazol-2-yl)benzyl)-N-(4-fluorophenyl)-6-methyl-2,6-diazaspiro[3.3]heptan-2-carbothioamide]
- pIC50 [1]: < 5.00
- pIC50 [2]: 7.22

Compound: CC(C)N1CC2(CN(C(=S)N(Cc3ccc(-c4nnc(C(F)F)o4)cc3)c3ccc(F)cc3)C2)C1 [Compound 21, N-(4-(5-(difluoromethyl)-1,3,4-oxadiazol-2-yl)benzyl)-N-(4-fluorophenyl)-6-isopropyl-2,6-diazaspiro[3.3]heptan-2-carbothioamide]
- pIC50 [1]: < 5.00
- pIC50 [2]: 7.15

Compound: Fc1ccc(N(Cc2ccc(-c3nnc(C(F)F)o3)cc2)C(=S)N2CC3(C2)CN(C2COC2)C3)cc1 [Compound 22, N-(4-(5-(difluoromethyl)-1,3,4-oxadiazol-2-yl)benzyl)-N-(4-fluorophenyl)-6-(oxetan-3-yl)-2,6-diazaspiro[3.3]heptan-2-carbothioamide]
- pIC50 [1]: < 5.00
- pIC50 [2]: 7.08

Compound: CN1CC2(C1)CN(C(=S)N(Cc1ccc(-c3nnc(C(F)F)o3)cc1F)c1ccc(Cl)c(Cl)c1)C2 [Compound 23, N-(3,4-dichlorophenyl)-N-(4-(5-(difluoromethyl)-1,3,4-oxadiazol-2-yl)-2-fluorobenzyl)-6-methyl-2,6-diazaspiro[3.3]heptan-2-carbothioamide]
- pIC50 [1]: < 5.00
- pIC50 [2]: 7.21

Compound: Fc1cc(-c2nnc(C(F)F)o2)ccc1CN(C(=S)N1CC2(C1)CN(C1COC1)C2)c1ccc(Cl)c(Cl)c1 [Compound 24, N-(3,4-dichlorophenyl)-N-(4-(5-(difluoromethyl)-1,3,4-oxadiazol-2-yl)-2-fluorobenzyl)-6-(oxetan-3-yl)-2,6-diazaspiro[3.3]heptan-2-carbothioamide]
- pIC50 [1]: < 5.00
- pIC50 [2]: 7.08

Compound: CN1CC2(C1)CN(C(=S)N(Cc1ccc(-c3nnc(C(F)F)o3)cc1F)c1ccc(F)c(Cl)c1)C2 [Compound 25, N-(3-chloro-4-fluorophenyl)-N-(4-(5-(difluoromethyl)-1,3,4-oxadiazol-2-yl)-2-fluorobenzyl)-6-methyl-2,6-diazaspiro[3.3]heptan-2-carbothioamide]
- pIC50 [1]: < 5.00
- pIC50 [2]: 7.34

Compound: Fc1ccc(N(Cc2ccc(-c3nnc(C(F)F)o3)cc2F)C(=S)N2CC3(COC3)C2)cc1F [Compound 35, N-(4-(5-(difluoromethyl)-1,3,4-oxadiazol-2-yl)-2-fluorobenzyl)-N-(3,4-difluorophenyl)-2-oxa-6-azaspiro[3.3]heptan-6-carbothioamide]
- pIC50 [1]: < 5.00

Compound: CN1C[C@@H]2C[C@H]1CN2C(=S)N(Cc1ccc(-c2nnc(C(F)F)o2)cc1F)c1ccc(F)c(F)c1 [Compound 42, (1S,4S)—N-(4-(5-(difluoromethyl)-1,3,4-oxadiazol-2-yl)-2-fluorobenzyl)-N-(3,4-difluorophenyl)-5-methyl-2,5-diazabicyclo[2.2.1]heptan-2-carbothioamide]
- pIC50 [1]: < 5.00
